Our source for the RP-LC retention time values is the METLIN SMRT retention time set (Domingo-Almenara et al. 2019).

A short description of this data set: gradient 5% acetonitrile 3 min, to 50% in 2 min, to 85% in 15 min, held 3 min, 100 µL/min. The following applies: column: Zorbax Extend-C18 2.1 x 50 mm; eluents: water / acetonitrile, 0.1% formic acid. The method, boiled down:
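Retention times of pure standards were taken from adduct peaks that were selected by computer and manually inspected. Over 3 months, mixtures of ~100 molecules were run by HPLC–quadrupole time-of-flight mass spectrometry in positive and negative ionization mode. The Zorbax Extend-C18 column (2.1 × 50 mm, 1.8 μm) ran at 100 μL/min in water and acetonitrile, each containing 0.1% formic acid, with 40 μL dead volume and 900 μL dwell volume.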
Molecule `COCCC1CCN(C(=O)CN(C)C(=O)c2ccsc2)CC1` registered an RP-LC retention time of 655 s.

On to `COCc1cc(=O)n(CC(=O)Nc2cc(F)ccc2C)c(N)n1`, for which the RP-LC retention time was 627 s.

Molecule `CCn1nc(C)c(-c2cc(C(=O)N3CCCCCCNC(=O)[C@@H]4CCCC[C@@H]43)no2)c1C` registered an RP-LC retention time of 834 s.

As for `CCCN1C(=O)C(CC(=O)N2CCOCC2)Sc2ncccc21` (stereo unspecified), the RP-LC retention time turned out to be 641 s.

As to `CCCn1cc(CCNC(=O)Nc2cccc(Cl)c2F)c2cccnc21`, the RP-LC retention time is 900 s.

In turn, `CCOc1cc(S(=O)(=O)Nc2cccc(C)n2)c(C)cc1C` yielded an RP-LC retention time of 779 s.

In turn, `CCOc1cc(-c2ccc(F)cc2)nc2ccc(NC(=O)C3CC3)cc12` displayed an RP-LC retention time of 721 s.

Take `O=C(Nc1cc(-c2ccsc2)no1)c1cccc(F)c1`: the RP-LC retention time worked out at 951 s.

With `COc1ccc(S(=O)(=O)NCCc2noc(C)n2)cc1`, the RP-LC retention time is 709 s.

`O=C1COc2cc(S(=O)(=O)N3CCCC3C(=O)NC3CCCCCCC3)c(Cl)cc2N1` (stereo unspecified) gave an RP-LC retention time of 864 s.

In turn, `CCC(=O)Nc1nc(-c2ccc3c(c2)NC(=O)C(C)O3)c(C)s1` (stereo unspecified) returned an RP-LC retention time of 759 s.

For `O=C(Cc1cccs1)Nc1nnc(SCc2ccc([N+](=O)[O-])cc2)s1`, the RP-LC retention time was found to be 861 s.

Take `O=C(NCC1CCCO1)c1csc(N2CCN(c3cccc(Cl)c3)CC2)n1` (stereo unspecified): the RP-LC retention time stood at 703 s.

`CC1(C(=O)NCc2ccc(F)cc2)CCN(S(=O)(=O)c2ccc(C3CCCCC3)cc2)CC1` returned an RP-LC retention time of 1210 s.

`Cc1ccc(C)c(C(O)Cn2ccn3nc(-c4cccs4)cc3c2=O)c1` (stereo unspecified) showed an RP-LC retention time of 915 s.

On to `Cc1cc(C)n2nc(SCC(=O)Nc3ccc(Br)cc3F)nc2n1`, for which the RP-LC retention time worked out at 850 s.

`Cc1ccccc1NC(=O)c1cn(CC2CCCO2)cc2c(=O)n(-c3ccccc3)nc1-2` (stereo unspecified): the RP-LC retention time was 943 s.

`CNC(=O)Nc1ccc(C2(C(=O)NCc3ccco3)CCC2)cc1`: the RP-LC retention time stood at 670 s.

As for `CCc1ccc(NC(=O)Nc2cccn3ncnc23)cc1`, the RP-LC retention time came out at 872 s.

For the molecule `O=C(c1cc2ccccc2o1)N1CCN(C(=O)C2COc3ccccc3O2)CC1` (stereo unspecified), the RP-LC retention time came to 829 s.

Regarding `Cc1nc(-c2cc3cccc(C)c3nc2N2CCN(c3ccc(F)cc3)CC2)no1`, the RP-LC retention time amounted to 732 s.

For the molecule `CCC1(O)CCOC2(CCN(Cc3ccc(OC)c(C)c3)CC2)C1` (stereo unspecified), the RP-LC retention time was 575 s.

Turning to `CC(C)c1ccc(S(=O)(=O)N2CCc3c(c(-c4nnc(-c5ccccc5F)o4)nn3C)C2)cc1`, the RP-LC retention time worked out at 1070 s.

As for `Cc1cc(C)n(Cc2ccc(C(=O)N3CCN(c4cc(=O)n(C)c(=O)n4C)CC3)o2)n1`, the RP-LC retention time amounted to 629 s.

The molecule `Cc1cc(=O)n(CC(=O)NCc2ccc3c(c2)OCO3)c(N2CCc3ccccc3C2)n1` came in with an RP-LC retention time of 718 s.

Molecule `C[C@@H](Nc1cc(NS(=O)(=O)N2CCC2)nc(SCc2cccc(F)c2F)n1)[C@@H](O)CO` came in with an RP-LC retention time of 845 s.

Molecule `O=C(NCc1ccnc(N2CCSCC2)c1)Nc1ccc(F)c(Cl)c1` displayed an RP-LC retention time of 673 s.

Regarding `Cc1cccc(N2CCN(C(=O)CN3C(=O)CN(C)C(=O)c4ccccc43)CC2C)c1` (stereo unspecified), the RP-LC retention time amounted to 671 s.

As for `OCCNCCN1CCN(CCCN2c3ccccc3Sc3ccc(C(F)(F)F)cc32)CC1`, the RP-LC retention time was 641 s.

`COc1ccccc1CNC(=O)C1CCc2nc(N3CCOCC3)ncc2C1` (stereo unspecified) had an RP-LC retention time of 719 s.

With `c1ccc2c(c1)nnn2-c1ccncc1`, the RP-LC retention time stood at 699 s.

Molecule `Cn1c(C2CCC(CNC(=O)Cn3c(=O)oc4ccccc43)CC2)nc2ccccc21` (stereo unspecified) had an RP-LC retention time of 566 s.

For `CCc1ccc(NC(=O)Cc2nnc3cc(-c4nc(C)no4)ccn23)cc1`, the RP-LC retention time came to 780 s.

`CCOC(=O)C1CCN(c2cc3c(cc2NC(=O)C2CC2)n(C)c(=O)c(=O)n3C)CC1` displayed an RP-LC retention time of 758 s.

Consider `CC(=O)c1cccc(NC(=O)c2nn(C)c(C(F)(F)F)c2Cl)c1`, for which the RP-LC retention time amounted to 924 s.

Molecule `COC(=O)c1c(NCc2ccccc2F)c2cccc(Cl)c2[nH]c1=O` had an RP-LC retention time of 808 s.

`COc1cccc(C(C)NC(=O)CN2C(=O)NC3(CCCCC3)C2=O)c1` (stereo unspecified) had an RP-LC retention time of 748 s.

As to `CCSc1nnc(NC(=O)CSc2nc3ccccc3o2)s1`, the RP-LC retention time was determined as 832 s.

For `Cc1ccc(N2CC(C(=O)Nc3ccc4c(c3)C(=O)N3CCCCC3CCO4)CC2=O)cc1` (stereo unspecified), the RP-LC retention time worked out at 762 s.

As to `O=C(NCCCc1ccccc1)C1CCN(c2ncnc3c2oc2ccccc23)CC1`, the RP-LC retention time came to 976 s.

`COc1ccc(N2CC(c3nc(-c4ccc(OC)c(OC)c4)no3)CC2=O)c(OC)c1` (stereo unspecified): the RP-LC retention time was 743 s.

Turning to `Cc1scc2nc(C3CCC3)nc(N3CCC(C(=O)NC4CCCCC4)CC3)c12`, the RP-LC retention time is 752 s.

On to `CCNC(=O)C1CCc2sc(C(=O)N3CCCC3)cc2C1` (stereo unspecified), for which the RP-LC retention time amounted to 663 s.

For `COc1cccc(CNC(=O)C2(C)CCCN(S(=O)(=O)c3ccccc3C)C2)c1` (stereo unspecified), the RP-LC retention time is 957 s.

Molecule `Cn1cc(CCNC(=O)NCc2ccco2)c2cccnc21` had an RP-LC retention time of 593 s.

`COc1ccc(-c2nc3n(n2)C2(CCCCC2)[C@@H]2CCCC[C@@H]2N3C(C)=O)cc1` yielded an RP-LC retention time of 1330 s.

In the case of `Clc1ccccc1/C=C/c1ccnc2ccccc12`, the RP-LC retention time amounted to 910 s.

`O=C(c1ccc(Cl)s1)N1CCC(N(C(=O)C2CC2)C2CCOCC2)CC1` returned an RP-LC retention time of 773 s.

`O=c1c2sccc2n(Cc2nc(-c3ccc(Cl)c(F)c3)no2)c(=O)n1Cc1ccccc1` yielded an RP-LC retention time of 1210 s.

`Cc1cccc(CNC(=O)CCC(=O)N2CCSc3nc(C)cc(C)c32)c1` returned an RP-LC retention time of 692 s.

For the molecule `CN1CCN(CCCNC(=O)c2nccnc2NC(=O)c2ccccc2)CC1`, the RP-LC retention time was 557 s.

In the case of `Cc1cccc2c(=O)n(C3CCN(S(=O)(=O)c4ccc(F)c(F)c4)CC3)cnc12`, the RP-LC retention time is 989 s.

`CCCN(CCC)C(=O)c1cc2c(s1)N(C)CCCC2` returned an RP-LC retention time of 1150 s.

`CS/C(=C\c1ccc(C(=O)c2ccc(C)cc2)n1C)S(C)=O` (stereo unspecified): the RP-LC retention time is 1120 s.

Regarding `Cc1ccc(-c2noc(C3CCCN3S(=O)(=O)c3ccc(F)c(Cl)c3)n2)cc1` (stereo unspecified), the RP-LC retention time is 1240 s.

With `Cc1cccc(NC(=O)C2CCN(C(=O)c3ncn4c3COC(c3ccccc3)C4)CC2)c1` (stereo unspecified), the RP-LC retention time turned out to be 798 s.

In the case of `Cc1nnsc1C(=O)N1CCC(CNC(=O)C(C)(C)Oc2ccc(Cl)cc2)CC1`, the RP-LC retention time turned out to be 806 s.

On to `CCCS(=O)(=O)N1CCc2[nH]nc(-c3ccccc3)c2C1`, for which the RP-LC retention time was found to be 752 s.

For the molecule `O=C(Cc1cccs1)N1CCc2cc(-c3csc(C4CC4)n3)ccc21`, the RP-LC retention time turned out to be 1120 s.

In turn, `Cc1ccc(NC(=O)N2CCN(C3=CC4=NCC(C)N4C=N3)CC2)c(C)c1` (stereo unspecified) yielded an RP-LC retention time of 623 s.

Regarding `O=C(Nc1ccc(F)cc1)N1CCC(N2CCN(Cc3ccccc3)C(=O)C2=O)CC1`, the RP-LC retention time was 723 s.

For the molecule `Cc1cc2nn(CC(=O)Nc3cccc(Cl)c3)c(=O)n2c(N2CCCC2)n1`, the RP-LC retention time turned out to be 813 s.

`CN1CCN(c2c(C(=O)c3ccccc3)cnc3cc4c(cc23)OCCO4)CC1` returned an RP-LC retention time of 551 s.

With `COc1ccc(NC(=O)c2cc(C)n3nc(-c4ccco4)cc3n2)cc1Cl`, the RP-LC retention time worked out at 1110 s.

For `CC(C)NC(=O)c1nccnc1NC(=O)c1ccccc1`, the RP-LC retention time came to 817 s.

`Cn1cc(CCNC(=O)Cc2ccc(Cl)cc2)c2cccnc21` had an RP-LC retention time of 696 s.

Regarding `CC(C)NC(=O)Cn1c(=O)cc(-c2nc(C3CC3)no2)c2ccccc21`, the RP-LC retention time came out at 806 s.

In turn, `O=c1c2cc(-c3ccc(Br)cc3)nn2cnn1Cc1nc(-c2ccc3c(c2)OCO3)no1` displayed an RP-LC retention time of 1160 s.

For `CCn1c(=O)c2cc(C(=O)Nc3ccc(OC)cc3OC)nn2c2ccccc21`, the RP-LC retention time was 1030 s.

The molecule `COc1ccc(CN2C=C(C(=O)OCc3ccccc3OC)C(C)=NS2(=O)=O)cc1` returned an RP-LC retention time of 1120 s.

In the case of `CNc1cc(-c2ccccc2)[nH]n1`, the RP-LC retention time is 553 s.

`Cc1nc(-c2noc(-c3ccncc3)n2)cn1CC(=O)Nc1ccc(Cl)cc1` gave an RP-LC retention time of 731 s.

The molecule `c1cncc(-c2nc(CC3CCCNC3)no2)c1` (stereo unspecified) registered an RP-LC retention time of 564 s.

In the case of `Cc1sc(NC(=O)c2ccccc2Br)nc1-c1ccc2c(c1)NC(=O)CO2`, the RP-LC retention time was found to be 859 s.

Molecule `COc1ccc(C2(CNS(=O)(=O)c3ccc4c(c3)OCCO4)CCOCC2)cc1` registered an RP-LC retention time of 785 s.

Regarding `CCOc1ccccc1-c1noc(Cn2c(=O)n(-c3ccccc3F)c(=O)c3sccc32)n1`, the RP-LC retention time was determined as 982 s.

The molecule `O=C(Nc1ccc2c(c1)OCCO2)N1c2ccccc2CC1c1nc(C2CC2)no1` (stereo unspecified) gave an RP-LC retention time of 966 s.

`CCC(=O)N1CCN(Cc2nc3cc(NC(=O)C(C)C)ccc3n2C)CC1` displayed an RP-LC retention time of 584 s.

Take `CN(C)c1ccc(N2C=C(C(=O)N3CCCC3)S(=O)(=O)c3ccc(Cl)cc32)cc1`: the RP-LC retention time worked out at 928 s.

In turn, `CCCn1cc(C(=O)NCc2ccncc2)c2cccnc21` showed an RP-LC retention time of 572 s.

Regarding `COc1ccc(CC(=O)N2CCC(c3cc(N)on3)CC2)cc1`, the RP-LC retention time stood at 662 s.
